# Like-named read-outs stand apart in the source and are kept apart here.
# Experiments:
# A2058 melanoma cell line = experiment: Proliferation assay (MTT); assay type: cell-based; conditions: Table 2.1; Melanoma A2058
# MM200 melanoma cell line [1] = experiment: Proliferation assay (MTT); assay type: cell-based
# [2] = test system: MDA-MB-468 breast cancer cell line; experiment: Proliferation assay (MTT); assay type: cell-based
# [3] = test system: SKOV-3 ovarian cancer cell line; experiment: Proliferation assay (MTT); assay type: cell-based
# [4] = test system: CP70 ovarian cancer cell line; experiment: Proliferation assay (MTT); assay type: cell-based
# [5] = test system: HPAC (CRL-2119) pancreatic cancer cell line; experiment: Proliferation assay (MTT); assay type: cell-based, human
# MM200 melanoma cell line [6] = experiment: HMC combination with cisplatin (synergy); assay type: cell-based; conditions: Table 8, single agent
# Experimental: (§1) IC50 values were determined for each cell line. Cells were seeded in 96-well plates at an appropriate cell density as determined from growth kinetics analysis and cultured for 5 days in the absence and presence of the test compounds. Cell proliferation was assessed after the addition of 20 μl of 3-4,5 dimethylthiazol-2,5-diphenyl tetrazolium bromide (MTT, 2.5 mg/ml in PBS, Sigma) for 3-4 hrs at 37° C. according to manufacturer's instructions. IC50 values were calculated from semi-log plots of % of control proliferation on the y-axis against log dose on the x-axis.
# 3-D model analysis of the cytotoxic interaction between drug A and drug B enables the representation of predicted inhibitory effect of two drugs in combination in 3 dimensions to reveal actual regions of synergy or antagonism. The 3D synergy plots are based on a theory of “Theretical Additivity” (TA) as outlined by Kanzawa et al (Int. J. Cancer 71, 311-319 (1997)). Theoretical Additivity was calculated from the cytotoxicities of drug A and drug B as monotherapies using the following formula which assumes the drugs are mutually exclusive inhibitors: […]
# The TA is calculated for each combination of drug concentrations and subtracted from the observed experimental effect for each combination to give a measurement of synergisitic action.
# HMC synergy with cisplatin was assessed either in combination over 5 days exposure or in sequence (HMC→cisplatin) against the MM200 melanoma cell line. It was difficult to assess for synergisitic toxicity using a change in IC50 as a measure of synergy due to HMC toxicity as monotherapy (Table 8). […] Evidence of synergy using the HMC-cisplatin combination was further assessed using the HMC→cisplatin sequence (24 hr exposure to each compound in sequence) against the melanoma cell line MM200. Using change in IC50 to assess for synergy it was noted that HMC at concentrations of 2 μM markedly chemosensitised the MM200 cells to cisplatin by >1000 fold (Table 8). HMC induced chemosensitisation of MM200 cells to cisplatin was confirmed using 3D analysis of the data (FIG. 11B).
# [7] = test system: Neonatal foreskin fibroblasts (NFF); experiment: Proliferation assay (MTT), normal cell toxicity; assay type: cell-based, Human; conditions: read-out: IC50
# Experimental: (§2) The normal cell line NFF (neonatal foreskin fibroblasts) was a sift from Dr. Peter Parsons (Queensland Institute of Medical Research). RK (rabbit kidney) cells were obtained from Miller Whalley (Macquarie University). Both cell lines were cultured in RPMI supplemented with 10% FCS(CSL, Australia), penicillin (100 U/ml), streptomycin ([…]), L-glutamine (2 mM) and sodium bicarbonate (1.2 g/L), and cultured at 37° C. in a humidified atmosphere of 5% CO2.
# as §1
# A2780 (Ovarian) = experiment: Proliferation assay (MTT); assay type: cell-based; conditions: Table 2.1
# Experimental: (§3) All cultures were supplemented with 10% FCS (fetal calf serum CSL, Australia), penicillin (100 U/ml), streptomycin ([…]), L-glutamine (2 mM) and sodium bicarbonate (1.2 g/L), and cultured at 37° C. in a humidified atmosphere of 5% CO2. All cell lines were purchased from ATCC (Maryland, USA) except where noted.
# as §1
# [8] = test system: MCF-7 breast cancer cell line; experiment: Proliferation assay (MTT); assay type: cell-based; conditions: Table 2.1, Breast MCF-7
# Experimental: as §3, §1
# HTB-138 (Glioma) = experiment: Proliferation assay (MTT); assay type: cell-based; conditions: Table 2.1; Glioma HTB-138
# Experimental: as §3, §1
# NCI-H460 (Lung) = experiment: Proliferation assay (MTT); assay type: cell-based; conditions: Table 2.1, Lung NCI-H460
# Experimental: as §3, §1
# HCT-15 (Colorectal) = experiment: Proliferation assay (MTT); assay type: cell-based; conditions: Table 2.1, Colorectal HCT-15
# Experimental: as §3, §1
# DU145 (Prostate) = experiment: Proliferation assay (MTT); assay type: cell-based
# Experimental: as §3, §1
# LNCaP (Prostate) = experiment: Proliferation assay (MTT); assay type: cell-based; conditions: Table 2.1
# Experimental: as §3, §1
# HT-29 (Colorectal) = experiment: Proliferation assay (MTT); assay type: cell-based; conditions: Table 2.1, Colorectal HT-29
# Experimental: as §3, §1
# [9] = test system: PC3 prostate cancer cell line; experiment: Proliferation assay (MTT); assay type: cell-based; conditions: Table 2.1
# Experimental: as §3, §1
# [10] = test system: TRAIL-sensitive and -resistant melanoma cells; experiment: Apoptosis incidence, statements over several melanoma cell lines; assay type: cell-based; conditions: 4 μM, 24 hr exposure, DHE-treated cells
# [11] = test system: normal fibroblasts (MRC-5); experiment: Apoptosis in normal fibroblasts; assay type: cell-based; conditions: same concentration (8 μM) and exposure times (24 and 48 hr) as melanoma cells
# Experimental: Studies were conducted on normal fibroblasts (MRC-5) and TRAIL-sensitive melanoma cells (ME4405 and MEL-RM) using 8 μM of either DHE, or HMC over 24 and 48 hr of exposure (FIG. 9).
# [12] = test system: MEL-RM melanoma cells (TRAIL sensitive); experiment: Apoptosis incidence in melanoma cells; assay type: cell-based
# [13] = DHE and HMC pharmacokinetics, oral, mice; assay type: in vivo, female BALB/c mice; conditions: for Free plasma concentration: 50 mg/kg p.o.
# Experimental: HMC and DHE were prepared as homogenous suspensions in 1% CMC (m:v, water). Both formulations were delivered orally by gavage to female BALB/c mice at a dosage of 50 mg/kg. Three animals were allocated to each timepoint (15 min, 30 min, 1 hr, 4 hr and 24 hr). At each respective timepoint, animals were euthanased by cervical dislocation and blood collected. Free HMC was analysed by mass spectroscopy.
# [14] = test system: ME4405 melanoma cells (TRAIL sensitive); experiment: Apoptosis incidence in melanoma cells; assay type: cell-based
# [15] = test system: IGR3 melanoma cells (Trail-resistant); experiment: Apoptosis incidence in melanoma cells; assay type: cell-based
# rabbit kidney cells (RK) = experiment: Proliferation assay (MTT), normal cell toxicity; assay type: cell-based; conditions: read-out: IC50
# Experimental: as §2, §1
# MM96L melanoma cell line = experiment: Proliferation assay (MTT); assay type: cell-based; conditions: Homo sapiens, Table 15
# Experimental: as §3, §1
# [16] = test system: SKMe128 melanoma cell line; experiment: Proliferation assay (MTT); assay type: cell-based; conditions: Table 15
# Experimental: as §3, §1
# NCI-H23 (Lung) = experiment: Proliferation assay (MTT); assay type: cell-based; conditions: Homo sapiens, Table 2.1
# Experimental: as §3, §1
# CCRF-CEM (Leukemic) = experiment: Proliferation assay (MTT); assay type: cell-based; conditions: Homo sapiens; Table 2.1; Leukemic CCRF-CEM
# Experimental: as §3, §1
# RPMI-8226 (Leukemic) = experiment: Proliferation assay (MTT); assay type: cell-based; conditions: Homo sapiens; Table 2.1; Leukemic RPMI-8226
# Experimental: as §3, §1
# [17] = test system: Mel-AT melanoma cells (Trail +ve/Caspase 8 −ve); experiment: Apoptosis incidence in melanoma cells; assay type: cell-based
# [18] = Table 1, Neonatal Foreskin Fibroblasts (Human, NFF)
smiles,measurement,setting,value
"N.N.[Cl][Pt][Cl] [Cisplatin, cisplatin, reference compound]",IC50,A2058 melanoma cell line,5.73 ± 2.3 µM
same,IC50,"MM200 melanoma cell line [1]; Table 2.1, Melanoma MM200, read-out: IC50",8.3 ± 0.7 µM
same,IC50,"[2]; Table 2.1, Breast MDA-MB-468, read-out: IC50",0.58 µM
same,IC50,"[3]; Table 2.1, Ovarian SKOV-3, read-out: IC50",5.4 µM
same,IC50,"[4]; Table 2.1, Ovarian CP70, read-out: IC50",10.3 µM
same,IC50,"[5]; Table 2.1, Pancreatic CRL-2119, read-out: IC50",9.36 µM
same,IC50,"MM200 melanoma cell line [6]; 24 hr exposure, read-out: IC50, 24 hr (monotherapy)",6.32 µM
same,IC50,"MM200 melanoma cell line [6]; 5 days exposure, read-out: IC50, Combined (monotherapy)",8.82 µM
same,IC50,[7]; [18],9.85 ± 5 µM
same,IC50,A2780 (Ovarian),2.1 µM
same,IC50,[8],3.69 µM
same,IC50,HTB-138 (Glioma),42.3 µM
same,IC50,NCI-H460 (Lung),22.3 µM
same,IC50,HCT-15 (Colorectal),130 ± 39 µM
same,IC50,DU145 (Prostate); Table 2.1,2.07 µM
same,IC50,LNCaP (Prostate),> 10 µM
same,IC50,HT-29 (Colorectal),22.7 ± 35 µM
same,IC50,[9],2.11 µM
"Oc1ccc(C2=Cc3ccc(O)cc3OC2)cc1 [DHE, dehydroequol, reference compound]",incidence of apoptosis,[10],0-1%
same,IC50,"MM200 melanoma cell line [1]; Table 2.1, Melanoma MM200",2.9 µM
same,IC50,"MM200 melanoma cell line [1]; Table 15, melanoma MM200, monotherapy",4.77 ± 4 µM
same,induction of apoptosis in normal fibroblasts,[11],do not induce apoptosis
same,Percent Apoptosis,"[12]; 24 hr exposure, 1 uM",0%
same,Percent Apoptosis,"[12]; 24 hr exposure, 2 uM",0%
same,Percent Apoptosis,"[12]; 24 hr exposure, 4 uM",0%
same,Percent Apoptosis,"[12]; 24 hr exposure, 8 uM",2%
same,Percent Apoptosis,"[12]; 24 hr exposure, 20 uM",5%
same,Percent Apoptosis,"[12]; 48 hr exposure, 1 uM",1%
same,Percent Apoptosis,"[12]; 48 hr exposure, 2 uM",1.5%
same,Percent Apoptosis,"[12]; 48 hr exposure, 4 uM",3%
same,Percent Apoptosis,"[12]; 48 hr exposure, 8 uM",10%
same,Percent Apoptosis,"[12]; 48 hr exposure, 20 uM",12%
same,IC50,"[2]; Homo sapiens, MDA-MB-468",7.9 ± 3.5 µM
same,Free plasma concentration,[13]; Time 0.25,3300 ± 130 nM
same,Free plasma concentration,[13]; Time 0.5,2900 ± 50 nM
same,Free plasma concentration,[13]; Time 1,1500 ± 110 nM
same,Free plasma concentration,[13]; Time 4,1300 ± 70 nM
same,Free plasma concentration,[13]; Time 24,150 ± 40 nM
same,maximum plasma concentration of the free form,[13]; oral 50 mg/kg,3.3 µM
same,ratio of free:total,[13]; oral 50 mg/kg,0.64
same,time of maximum free concentration,[13]; oral 50 mg/kg,15 min
same,IC50,"[3]; Homo sapiens, SK-OV-3",21.8 ± 4.65 µM
same,IC50,[4],1.69 ± 0.62 µM
same,IC50,"[5]; Homo sapiens, HPAC",56.6 ± 16.8 µM
same,IC50,"[7]; Homo sapiens, Fibroblast, NFF",> 150 µM
same,IC50,[7]; [18],> 150 µM
same,Percent Apoptosis,"[14]; 24 hr exposure, 1 uM",0%
same,Percent Apoptosis,"[14]; 24 hr exposure, 2 uM",2%
same,Percent Apoptosis,"[14]; 24 hr exposure, 4 uM",2%
same,Percent Apoptosis,"[14]; 24 hr exposure, 8 uM",6%
same,Percent Apoptosis,"[14]; 24 hr exposure, 20 uM",11%
same,Percent Apoptosis,"[14]; 48 hr exposure, 1 uM",1%
same,Percent Apoptosis,"[14]; 48 hr exposure, 2 uM",3%
same,Percent Apoptosis,"[14]; 48 hr exposure, 4 uM",14%
same,Percent Apoptosis,"[14]; 48 hr exposure, 8 uM",40%
same,Percent Apoptosis,"[14]; 48 hr exposure, 20 uM",35%
same,Percent Apoptosis,"[15]; 24 hr exposure, 1 uM",0%
same,Percent Apoptosis,"[15]; 24 hr exposure, 2 uM",0%
same,Percent Apoptosis,"[15]; 24 hr exposure, 4 uM",1%
same,Percent Apoptosis,"[15]; 24 hr exposure, 8 uM",3%
same,Percent Apoptosis,"[15]; 24 hr exposure, 20 uM",4%
same,Percent Apoptosis,"[15]; 48 hr exposure, 1 uM",1%
same,Percent Apoptosis,"[15]; 48 hr exposure, 2 uM",1%
same,Percent Apoptosis,"[15]; 48 hr exposure, 4 uM",2%
same,Percent Apoptosis,"[15]; 48 hr exposure, 8 uM",8%
same,Percent Apoptosis,"[15]; 48 hr exposure, 20 uM",8%
same,IC50,"rabbit kidney cells (RK); Oryctolagus cuniculus, rabbit kidney cells",> 150 µM
same,IC50,"rabbit kidney cells (RK); Table 1, Rabbit Kidney",> 150 µM
same,IC50,A2780 (Ovarian); Homo sapiens,1.7 ± 0.61 µM
same,IC50,"[8]; Homo sapiens, MCF7",21.5 ± 13.2 µM
same,IC50,MM96L melanoma cell line,4.76 µM
same,IC50,HTB-138 (Glioma),7.35 ± 0.89 µM
same,IC50,NCI-H460 (Lung); Homo sapiens,10.6 ± 3.8 µM
same,IC50,HCT-15 (Colorectal); Homo sapiens,24.4 ± 12.6 µM
same,IC50,"DU145 (Prostate); Homo sapiens, DU-145, Table 2.1",5.95 ± 1.5 µM
same,IC50,[16],4.4 µM
same,IC50,LNCaP (Prostate); Homo sapiens,4.8 ± 3.8 µM
same,IC50,HT-29 (Colorectal); Homo sapiens,50.5 ± 21.9 µM
same,IC50,NCI-H23 (Lung),8.75 ± 7.2 µM
same,IC50,[9],9.09 ± 8.12 µM
same,IC50,CCRF-CEM (Leukemic),1.7 ± 0.68 µM
same,IC50,RPMI-8226 (Leukemic),3.72 ± 0.08 µM
same,Percent Apoptosis,"[17]; 24 hr exposure, 1 uM",0%
same,Percent Apoptosis,"[17]; 24 hr exposure, 2 uM",3%
same,Percent Apoptosis,"[17]; 24 hr exposure, 4 uM",4%
same,Percent Apoptosis,"[17]; 24 hr exposure, 8 uM",8%
same,Percent Apoptosis,"[17]; 24 hr exposure, 20 uM",10%
same,Percent Apoptosis,"[17]; 48 hr exposure, 1 uM",1.5%
same,Percent Apoptosis,"[17]; 48 hr exposure, 2 uM",5%
same,Percent Apoptosis,"[17]; 48 hr exposure, 4 uM",15%
same,Percent Apoptosis,"[17]; 48 hr exposure, 8 uM",43%
same,Percent Apoptosis,"[17]; 48 hr exposure, 20 uM",40%

# From patent US8163795B2, “Chroman derivatives, medicaments and use in therapy” (Marshall Edwards, Inc., priority 2004, dated 2012)
